Test: xn = mol fraction of the nth substance listed
Details: 101 kPa

CCCC[n+]1ccn(C)c1.F[B-](F)(F)F + O
viscosity [mPa·s]
Details	x2 = 0	x2 = 0.1002	x2 = 0.209	x2 = 0.2984	x2 = 0.4001	x2 = 0.5014	x2 = 0.6004	x2 = 0.7	x2 = 0.8	x2 = 0.8999
303.15 K	–	47.6	34.9	23.3	16.6	12	10	6.7	4.36	2.53
308.15 K	58.2	–	–	19.4	13.6	10.5	8.7	5.85	3.8	2.21
313.15 K	–	30.7	23.5	16.2	11.4	–	–	5.35	3.36	1.95
318.15 K	37.8	25.7	19.6	14.1	9.7	7.8	–	4.53	2.99	1.73
323.15 K	31.1	21.5	–	11.7	–	6.8	5.69	4.05	2.68	1.54
333.15 K	21.5	15.4	12	8.6	6.2	5.28	4.75	3.29	2.19	1.28
343.15 K	15.6	11.5	9	–	4.68	4.24	–	–	1.82	–
353.15 K	11.5	–	6.8	4.96	3.56	3.44	–	2.31	1.54	0.91

O + CCCC[n+]1ccn(C)c1.F[B-](F)(F)F
x1 = 1
Details	viscosity [mPa·s]
303.15 K	0.8
308.15 K	0.72
313.15 K	0.65
318.15 K	0.6
323.15 K	0.55
343.15 K	0.4
353.15 K	0.35

Source: a compilation of properties of binary mixtures (doi:10.1021/je050387r)
